From US7468369B2, “Sulfonyl pyrrolidines, method for producing the same and their use as drugs” (Sanofi-Aventis, priority 2005, dated 2008)

Test system: human ABCA1 promoter
Experiment: ABCA1 promoter test (luciferase reporter in stably transfected THP1 cell line)
Format: cell-based
Conditions: Homo sapiens, THP-1; ABCA1 reporter cell line (THP1, PMA-differentiated), 24 h incubation, luciferase chemiluminescence; read-out: E50 ABCA1
Experimental: The potency of substances which activate expression of the human ABCA1 gene via its promoter is analyzed by using a stably transfected THP1 cell line (human monocyte cell line) which is referred to herein as ABCA1 reporter cell line. It contains a fragment, 3.2 kb in size and stably integrated into the genome, of the human ABCA1 promoter in front of a luciferase reporter element. Expression of the luciferase reporter gene is only low without addition of an ABCA1 expression activator. The substances stimulating ABCA1 expression bring about, via activation of the ABCA1 promoter, an enhanced expression of the luciferase reporter gene. The luciferase which is formed can be detected via an appropriate substrate by means of chemiluminescence.
Construction of the Cell Line
The ABCA1 reporter line was prepared as follows: firstly the neomycin resistance gene (Acc. No.: AJ000156) was introduced into the luciferase reporter plasmid pLG3basic (#1751, Promega) 3′ below the luciferase reporter element. Subsequently, an ABCA1 promoter fragment, 3.2 kb in size and amplified from human genomic DNA (#6550-1, Clontech) by the polymerase chain reaction, was cloned in 5′ above the luciferase reporter element. The reporter plasmid produced in this way was called pGL3BN-ABCA1P. Luciferase expression in this plasmid is controlled by the ABCA1 promoter. Cloning and sequencing of the construct took place in analogy to the description in Sambrook J et al. (Molecular cloning, Cold Spring Harbor Laboratory Press, 1989). For stable transfection into THP1 cells, firstly pGL3BN-ABCA1P was linearized with a restriction endonuclease and then introduced into the THP1 cells as stated in Ausubel, F. M. et al. (Current protocols in molecular biology, Vol. 1-3, John Wiley & Sons, Inc., 1995).
The activity of ABCA1 expression activators is determined in a 3-day test which is described below:
The ABCA1 reporter cell line comprises suspension cells. These are cultured until the concentration is 0.5×10^6 cells/ml in RPMI medium (#52400-025, Invitrogen) which is mixed with the following additions: 10% FCS (fetal calf serum; #16000-044, invitrogen), 0.5 mg/ml Geneticin (#10131-019, invitrogen) and 1% penicillin-streptomycin solution (#15140-122, invitrogen). The culturing takes place in standard cell culture flasks (#353112, Becton Dickinson) in a cell culture incubator at 37° C. in the presence of 5% CO2.
For the ABCA1 promoter test, the suspension cells are centrifuged at 1200 rpm in 50 ml tubes. The supernatant is aspirated off, and the pellet is resuspended in 15 ml of RPMI medium and counted in a cell counter. After dilution to 175 000 cells/ml, 0.1 μg/ml PMA (phorbol 12-myristate 13-acetate, #8139-5MG, Sigma) is added in order to induce differentiation of the monocytic THP1 suspension cells into adherent macrophages. 35 000 cells in each well are seeded in a 96-well microtiter plate with clear plastic base (#3610, Corning Costar). The plates are incubated in a cell culture incubator at 37° C. and 5% CO2 for 24 h.
The ABCA1 expression activators to be tested are dissolved in a concentration of 10 mM in DMSO. This stock solution is diluted in the RPMI medium (mixed with 0.1 μg/ml PMA) described above. Test substances are tested in 11 different concentrations in the range from […] to 330 pM. The medium of the ABCA1 reporter cell line seeded on day 1 is completely removed by aspiration and the diluted test substances are immediately added to the cells. The dilution and addition of the substances takes place with a pipetting robot (Beckman FX). The final volume of the test substances diluted in medium is 100 μl per well of a 96-well microtiter plate. The DMSO concentration in the test is less than 0.1% v/v in order to avoid cytotoxic effects of the solvent.
The test plates are incubated in an incubator at 37° C. and 5% CO2 for 24 h.
The ABCA1 reporter cells treated with the test substances are removed from the incubator and the medium is aspirated off. […]

Row | EC50 | Compound
1 | 13.2 µM | CC(=O)c1ccc(N2CCN(C(=O)[C@@H]3CN(S(=O)(=O)c4cccs4)C[C@H]3c3ccccc3)CC2)cc1 (racemic) [Example 7, 1-(4-{4-[3,4-trans-4-Phenyl-1-(thiophene-2-sulfonyl)pyrrolidine-3-carbonyl]-piperazin-1-yl}phenyl)ethanone]
2 | 15 µM | COc1ccccc1N1CCN(C(=O)[C@@H]2CN(S(=O)(=O)c3cccs3)C[C@H]2c2ccccc2)CC1 (racemic) [Example 24, [4-(2-Methoxyphenyl)piperazin-1-yl]-[3,4-trans-4-phenyl-1-(thiophene-2-sulfonyl)pyrrolidin-3-yl]methanone]
3 | 3.81 µM | COc1ccccc1N1CCN(C(=O)[C@@H]2CN(S(=O)(=O)c3cc(Br)c(Br)s3)C[C@H]2c2ccccc2)CC1 (racemic) [Example 25, [1-(4,5-Dibromothiophene-2-sulfonyl)-3,4-trans-4-phenylpyrrolidin-3-yl]-[4-(2-methoxyphenyl)piperazin-1-yl]methanone]
4 | 2.94 µM | COc1ccccc1N1CCN(C(=O)[C@@H]2CN(S(=O)(=O)c3ccc(Cl)s3)C[C@H]2c2ccccc2)CC1 (racemic) [Example 26, [1-(5-Chlorothiophene-2-sulfonyl)-3,4-trans-4-phenylpyrrolidin-3-yl]-[4-(2-methoxyphenyl)piperazin-1-yl]methanone]
5 | 6.99 µM | COc1ccccc1N1CCN(C(=O)[C@@H]2CN(S(=O)(=O)c3cc(Cl)c(Cl)s3)C[C@H]2c2ccccc2)CC1 (racemic) [Example 27, [1-(4,5-Dichlorothiophene-2-sulfonyl)-3,4-trans-4-phenylpyrrolidin-3-yl]-[4-(2-methoxyphenyl)piperazin-1-yl]methanone]
6 | 5.61 µM | COc1ccccc1N1CCN(C(=O)[C@@H]2CN(S(=O)(=O)c3sc4ccc(Cl)cc4c3C)C[C@H]2c2ccccc2)CC1 (racemic) [Example 29, [1-(5-Chloro-3-methylbenzo[b]thiophene-2-sulfonyl)-3,4-trans-4-phenyl-pyrrolidin-3-yl]-[4-(2-methoxyphenyl)piperazin-1-yl]methanone]
7 | 3.22 µM | O=C([C@@H]1CN(S(=O)(=O)c2cccs2)C[C@H]1c1ccccc1)N1CCN(c2cccc(C(F)(F)F)c2)CC1 (racemic) [Example 30, [3,4-trans-4-Phenyl-1-(thiophene-2-sulfonyl)pyrrolidin-3-yl]-[4-(3-trifluoromethylphenyl)piperazin-1-yl]methanone]
8 | 1.77 µM | O=C([C@@H]1CN(S(=O)(=O)c2cc(Br)c(Br)s2)C[C@H]1c1ccccc1)N1CCN(c2cccc(C(F)(F)F)c2)CC1 (racemic) [Example 31, [1-(4,5-Dibromothiophene-2-sulfonyl)-3,4-trans-4-phenylpyrrolidin-3-yl]-[4-(3-trifluoromethylphenyl)piperazin-1-yl]methanone]
9 | 16.2 µM | O=C([C@@H]1CN(S(=O)(=O)c2ccc(Cl)s2)C[C@H]1c1ccccc1)N1CCN(c2cccc(C(F)(F)F)c2)CC1 (racemic) [Example 32, [1-(5-Chlorothiophene-2-sulfonyl)-3,4-trans-4-phenylpyrrolidin-3-yl]-[4-(3-trifluoromethylphenyl)piperazin-1-yl]methanone]
10 | 6.59 µM | O=C([C@@H]1CN(S(=O)(=O)c2cc(Cl)c(Cl)s2)C[C@H]1c1ccccc1)N1CCN(c2cccc(C(F)(F)F)c2)CC1 (racemic) [Example 33, [1-(4,5-Dichlorothiophene-2-sulfonyl)-3,4-trans-4-phenylpyrrolidin-3-yl]-[4-(3-trifluoromethylphenyl)piperazin-1-yl]methanone]
11 | 3.6 µM | Cc1ccc(N2CCN(C(=O)[C@@H]3CN(S(=O)(=O)c4cccs4)C[C@H]3c3ccccc3)CC2)c(C)c1 (racemic) [Example 36, [4-(2,4-Dimethylphenyl)piperazin-1-yl]-[3,4-trans-4-phenyl-1-(thiophene-2-sulfonyl)pyrrolidin-3-yl]methanone]
